The structures appear in SMILES notation.

For the assay, the target named is T1, BTK (Homo sapiens, UniProt Q06187).
T1 construct: The GM01501.3 cell line endogenously expresses BTK with a HiBiT fusion tag via CRISPR knock-in at its C-terminal region; endogenous in cells; host or cells: GM01501.3 (GM01501 cells engineered by CRISPR knock-in of HiBiT at the BTK locus)
T1 sequence (Q06187 whole entry, the tested form may be a part): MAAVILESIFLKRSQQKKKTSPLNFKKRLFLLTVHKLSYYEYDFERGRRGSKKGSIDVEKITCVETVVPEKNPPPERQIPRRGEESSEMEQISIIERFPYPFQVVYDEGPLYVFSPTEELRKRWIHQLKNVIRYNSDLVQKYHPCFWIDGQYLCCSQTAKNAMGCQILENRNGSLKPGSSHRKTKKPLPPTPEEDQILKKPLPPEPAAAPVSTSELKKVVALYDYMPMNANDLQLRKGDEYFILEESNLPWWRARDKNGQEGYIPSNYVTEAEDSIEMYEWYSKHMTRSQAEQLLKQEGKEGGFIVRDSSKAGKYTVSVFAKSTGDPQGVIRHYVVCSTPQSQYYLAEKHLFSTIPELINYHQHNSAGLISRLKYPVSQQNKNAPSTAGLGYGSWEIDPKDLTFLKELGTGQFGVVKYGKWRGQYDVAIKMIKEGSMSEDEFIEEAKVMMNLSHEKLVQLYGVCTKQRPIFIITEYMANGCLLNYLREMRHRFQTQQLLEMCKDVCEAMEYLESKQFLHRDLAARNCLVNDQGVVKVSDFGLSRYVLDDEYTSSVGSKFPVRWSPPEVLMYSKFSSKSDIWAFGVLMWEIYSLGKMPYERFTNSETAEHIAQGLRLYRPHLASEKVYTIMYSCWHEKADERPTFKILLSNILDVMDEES
The assay is described as follows: BTK degradation assay using the HiBiT Method (Nano-Glo HiBiT Lytic Assay, GM01501.3 cells). To be noted: HiBiT Degradation on GM01501.3 BTK @ 6 hours. Format: cell-based. In outline: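 CRISPR knock-in GM01501.3 cells expressing endogenous BTK with C-terminal HiBiT tag, treated 6 h at 37 °C with compounds, 11-point half-log titration from 10 μM top, duplicates. Remaining BTK quantified by Nano-Glo HiBiT lytic luminescence versus DMSO controls; DC50 reported.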
`Cc1cc(-c2ncnn3cc(N4CCN(C(=O)c5ccccc5CNC(=O)c5ccc(OC6CCC(=O)NC6=O)cc5)CC4)cc23)ccc1CNC(=O)c1noc(C(C)(C)C)n1` (stereo not shown) [Example 193, 5-(tert-butyl)-N-(4-(6-(4-(2-((4-((2,6-dioxopiperidin-3-yl)oxy)benzamido)methyl)benzoyl)piperazin-1-yl)pyrrolo[2,1-f][1,2,4]triazin-4-yl)-2-methylbenzyl)-1,2,4-oxadiazole-3-carboxamide] showed a DC50 below 100 nM.

In turn, `Cc1cc(-c2ncnn3cc(CCCCN4CCC(c5ccc6c(N7CCC(=O)NC7=O)nn(C)c6c5F)CC4)cc23)ccc1CNC(=O)c1noc(C(C)(C)C)n1` [Example 278, 5-(tert-butyl)-N-(4-(6-(4-(4-(3-(2,4-dioxotetrahydropyrimidin-1(2H)-yl)-7-fluoro-1-methyl-1H-indazol-6-yl)piperidin-1-yl)butyl)pyrrolo[2,1-f][1,2,4]triazin-4-yl)-2-methylbenzyl)-1,2,4-oxadiazole-3-carboxamide] came in with a DC50 below 100 nM.

The compound `CC(C)(C)c1nc(C(=O)NCc2ccc(-c3ncnn4cc(-c5ccc(CN6CCC(c7ccc(C8CCC(=O)NC8=O)cc7)CC6)cc5)cc34)cc2F)no1` (stereo not shown) [Example 42, 5-tert-butyl-N-[[4-[6-[4-[[4-[4-(2,6-dioxo-3-piperidyl)phenyl]-1-piperidyl]methyl]phenyl]pyrrolo[2,1-f][1,2,4]triazin-4-yl]-2-fluoro-phenyl]methyl]-1,2,4-oxadiazole-3-carboxamide] returned a half-maximal degradation concentration (DC50) below 100 nM. Take `Cc1cc(-c2ncnn3cc(-c4ccc(CN5CCC(c6ccc(NC7CCC(=O)NC7=O)cc6)CC5)cc4)cc23)ccc1CNC(=O)c1coc(C(C)(C)C)n1` (stereo not shown) [Example 78, 2-tert-butyl-N-[[4-[6-[4-[[4-[4-[(2,6-dioxo-3-piperidyl)amino]phenyl]-1-piperidyl]methyl]phenyl]pyrrolo[2,1-f][1,2,4]triazin-4-yl]-2-methyl-phenyl]methyl]oxazole-4-carboxamide]: the DC50 is below 100 nM.

Compound `Cc1cc(-c2ncnn3cc(-c4ccc(CN5CCC(c6ccc(NC7CCC(=O)NC7=O)cc6)CC5)cc4)cc23)ccc1CNC(=O)N1CCC(OC(C)(C)C)C1` (stereo not shown) [Example 98, 3-tert-butoxy-N-[[4-[6-[4-[[4-[4-[(2,6-dioxo-3-piperidyl)amino]phenyl]-1-piperidyl]methyl]phenyl]pyrrolo[2,1-f][1,2,4]triazin-4-yl]-2-methyl-phenyl]methyl]pyrrolidine-1-carboxamide] had a DC50 below 100 nM.

`Cc1cc(-c2ncnn3cc(-c4ccc(CN5CCC(c6ccc(C7CCC(=O)NC7=O)cc6)CC5)cc4)cc23)ccc1CNC(=O)c1noc(C(C)(C)C)n1` (stereo not shown) [Example 4, 5-tert-butyl-N-[[4-[6-[4-[[4-[4-(2,6-dioxo-3-piperidyl)phenyl]-1-piperidyl]methyl]phenyl]pyrrolo[2,1-f][1,2,4]triazin-4-yl]-2-methyl-phenyl]methyl]-1,2,4-oxadiazole-3-carboxamide] showed a DC50 below 100 nM.

For the compound `Cc1cc(-c2ncnn3cc(N4CCN(C(=O)C5CCN(C(=O)c6ccc(OC7CCC(=O)NC7=O)cc6)C56CCC6)CC4)cc23)ccc1CNC(=O)c1noc(C(C)(C)C)n1` (stereo not shown) [Example 191, 5-(tert-butyl)-N-(4-(6-(4-(5-(4-((2,6-dioxopiperidin-3-yl)oxy)benzoyl)-5-azaspiro[3.4]octane-8-carbonyl)piperazin-1-yl)pyrrolo[2,1-f][1,2,4]triazin-4-yl)-2-methylbenzyl)-1,2,4-oxadiazole-3-carboxamide], the DC50 was below 100 nM. With `CC(C)(C)c1nc(C(=O)NCc2ccc(-c3ncnn4cc(-c5ccc(CN6CCN(Cc7cccc(OC8CCC(=O)NC8=O)c7)CC6)cn5)cc34)cc2F)no1` (stereo not shown) [Example 235, 5-(tert-butyl)-N-(4-(6-(5-((4-(3-((2,6-dioxopiperidin-3-yl)oxy)benzyl)piperazin-1-yl)methyl)pyridin-2-yl)pyrrolo[2,1-f][1,2,4]triazin-4-yl)-2-fluorobenzyl)-1,2,4-oxadiazole-3-carboxamide] the figure was below 100 nM; with `Cc1cc(-c2ncnn3cc(-c4ccc(CCN5CCC(c6ccc(C7CCC(=O)NC7=O)cc6)C(F)(F)C5)cc4)cc23)ccc1CNC(=O)c1noc(C(C)(C)C)n1` (stereo not shown) [Example 51, 5-tert-butyl-N-[[4-[6-[4-[2-[4-[4-(2,6-dioxo-3-piperidyl)phenyl]-3,3-difluoro-1-piperidyl]ethyl]phenyl]pyrrolo[2,1-f][1,2,4]triazin-4-yl]-2-methyl-phenyl]methyl]-1,2,4-oxadiazole-3-carboxamide], below 100 nM. The result for `Cc1cc(-c2ncnn3cc(CCN4CCC(c5ccc(NC6CCC(=O)NC6=O)nc5)CC4)cc23)ccc1CNC(=O)c1noc(C(C)(C)C)n1` (stereo not shown) [Example 250, 5-(tert-butyl)-N-(4-(6-(2-(4-(6-((2,6-dioxopiperidin-3-yl)amino)pyridin-3-yl)piperidin-1-yl)ethyl)pyrrolo[2,1-f] [1,2,4]triazin-4-yl)-2-methylbenzyl)-1,2,4-oxadiazole-3-carboxamide] reads below 100 nM. Turning to `Cc1cc(-c2ncnn3cc(-c4ccc5c(c4)CCN(CCCc4ccc(NC6CCC(=O)NC6=O)cc4)C5)cc23)ccc1CNC(=O)c1noc(C(C)(C)C)n1` (stereo not shown) [Example 58, 5-tert-butyl-N-[[4-[6-[2-[3-[4-[(2,6-dioxo-3-piperidyl)amino]phenyl]propyl]-3,4-dihydro-1H-isoquinolin-6-yl]pyrrolo[2,1-f][1,2,4]triazin-4-yl]-2-methyl-phenyl]methyl]-1,2,4-oxadiazole-3-carboxamide], the DC50 is below 100 nM. The compound `CC(C)(C)c1nc(C(=O)NCc2ccc(-c3ncnn4cc(-c5ccc(CN6CCOc7cc(OC8CCC(=O)NC8=O)ccc7C6)cn5)cc34)cc2F)no1` (stereo not shown) [Example 228] had a DC50 of 100 to 500 nM. Regarding `Cc1cc(-c2ncnn3cc(-c4ccc(CN5CCC(c6ccc(NC7CCC(=O)NC7=O)c(F)c6)CC5)cc4)cc23)ccc1CNC(=O)c1noc(C(C)(C)C)n1` (stereo not shown) [Example 18, 5-tert-butyl-N-[[4-[6-[4-[[4-[4-[(2,6-dioxo-3-piperidyl)amino]-3-fluoro-phenyl]-1-piperidyl]methyl]phenyl]pyrrolo [2,1-f][1,2,4]triazin-4-yl]-2-methyl-phenyl]methyl]-1,2,4-oxadiazole-3-carboxamide], the DC50 is below 100 nM. `CO[C@H]1CN(CCc2cc3c(-c4ccc(CNC(=O)c5noc(C(C)(C)C)n5)c(C)c4)ncnn3c2)CC[C@H]1c1ccc2c(N3CCC(=O)NC3=O)nn(C)c2c1` (single isomer, unassigned) [Example 262] displayed a DC50 below 100 nM.

Turning to `Cc1cc(-c2ncnn3cc(CCN4CCC(c5ccc6c(N7CCC(=O)NC7=O)nn(C)c6c5F)CC4)cc23)ccc1CNC(=O)c1noc(C(C)(C)C)n1` [Example 259, 5-(tert-butyl)-N-(4-(6-(2-(4-(3-(2,4-dioxotetrahydropyrimidin-1(2H)-yl)-7-fluoro-1-methyl-1H-indazol-6-yl)piperidin-1-yl)ethyl)pyrrolo[2,1-f][1,2,4]triazin-4-yl)-2-methylbenzyl)-1,2,4-oxadiazole-3-carboxamide], the DC50 was below 100 nM. The result for `Cc1cc(-c2ncnn3cc(-c4ccc(CN5CCC(c6ccc(NC7CCC(=O)NC7=O)cc6)CC5)cc4)cc23)ccc1CNC(=O)CCC(C)(C)C` (stereo not shown) [Example 81, N-[[4-[6-[4-[[4-[4-[(2,6-dioxo-3-piperidyl)amino]phenyl]-1-piperidyl]methyl]phenyl]pyrrolo[2,1-f][1,2,4]triazin-4-yl]-2-methyl-phenyl]methyl]-4,4-dimethyl-pentanamide] reads below 100 nM.

The record behind these values is US20240287076A1, “COMPOUNDS FOR TARGETING DEGRADATION OF BRUTON'S TYROSINE KINASE” (BIOGEN MA INC., priority 2021, published 2024).
